Test results reported in patent US4898878A, “Antioxidant thiohistidine compounds” (priority 1987, dated 1990).

Assays:
[1] = biological target: ovoperoxidase (Strongylocentrotus purpuratus, UniProt O44391); experiment: CN--resistant NAD(P)H-O2 oxidoreductase (oxidase) activity of ovoperoxidase, thiol cofactor; type: biochemical; settings: for cofactor for the CN--resistant oxidase reaction: in place of ovothiol
Description: NAD(P)H--02 oxidoreductase activity was measured by following the oxidation of reduced pyridine nucleotides spectrophotometrically at 360 nm in a Gilford 420 spectrophotometer. The off-peak wavelength of 360 nm for reduced pyridine nucleotides allowed the use of higher concentrations in a 1.0 cm pathlength cuvette. Assays were conducted in a 1 ml volume containing 50 mM NaCl, 20mM Hepes, 20 mM Tris, at pH 8.0 and 25° C., to which was added for routine assays 0.4 mM NADH, 0.5 mM MnCl2, 1 mM NaCN, 134 nM ovoperoxidase, and the appropriate amount of ovothiol preparation. One unit of activity is defined as the amount of ovothiol needed to stimulate consumption of 1.0 nanomoles NADH/min. […] Assays were initiated with NADH unless otherwise specified.

[2] = Non-enzymic direct reaction of thiol with H2O2; type: physicochemical; settings: metal-free solutions containing EDTA; for second order rate constant for reaction with H2O2: non-enzymic
Description: The non-enzymic reaction of OSH and H2 02 was measured and compared with GSH reacting with H2 02.
These preliminary studies were done in metal-free solutions containing EDTA, so additional experiments can compare the effect of ions of Fe, Mn, and Cu, as well as certain liganded derivatives such as hematin and vitamin B12, on the reaction. […] Oxidation of ovothiol can be monitored by its absorbance change at 310 nm (Turner et al., 1986) and glutathione by coupling the reaction to glutathione reductase and NADPH oxidation.

[3] = Inhibition of pyrogallol autooxidation
Source text: The inhibition of the air oxidation of pyrogallol has been used previously as an assay for superoxide dismutase (SOD) (Marklund, S., and G. Marklund, Eur. J. Biochem. 47:469, 1974; Roth, E. F. Jr., and H. S. Gilbert, Anal. Biochem. 137:50, 1984).

[4] = Trapping of tyrosyl radicals: photochemical dityrosine formation
Source text: The known photochemical crosslinking of tyrosine (Amado, R., et al., Methods Enzymol. 107:377, 1984; Malencik, D. A., and S. R. Anderson, Biochem. 26:695, 1987; Joschek, H.-I., and S. I. Miller, J. Am. Chem. Soc. 88:3273, 1986) may be used as an assay for tyrosyl radical scavenging ability. This reaction proceeds by photochemical excitation of tyrosine, followed by an ejection of an electron to yield a tyrosyl radical. The ejected electron is apparently scavenged by oxygen, as evidenced by the augmentation of the tyrosine crosslinking rate on addition of SOD (scavenging 02^.-, thus slowing the back reaction of tyrosyl radical and 02^.- to yield tyrosine and 02). The tyrosyl radicals couple with one another to yield dityrosine, which is detected by its characteristic fluorescence. […] This is strong evidence that ovothiol can act as an efficient tyrosyl radical scavenger. This assay is mechanistically relatively simple technique for assaying antioxidants.

[5] = test system: xanthine/xanthine oxidase system; settings: cited from earlier work
[6] = test system: xanthine/xanthine oxidase system; experiment: Xanthine oxidase-dependent oxyradical production, thiol oxidation; type: biochemical
Source text: Xanthine oxidase with both acetaldehyde and xanthine as substrates (both xanthine and its product uric acid react with OH^.) are used to determine whether the aromatic thiols or glutathione are oxidized by this reaction, or whether they inhibit cytochrome C reduction (McCord, J. M., and I. Fridovich, J. Biol. Chem. 244:6049-6054, 1969; Crapo, J. D., et al, Methods in Enzymology 530:382-386, 1977). For example, the ovothiol analogue H3 is oxidized by the xanthine/xanthine oxidase system, and that this can be suppressed by up to 50% by addition of SOD. Since GSH is protected only 20% by SOD in this assay (Wefers, H., and H. Sies, Europ. J. Biochem. 137:2936, 1983; Ross, D., et al., Biochem. Biophys. Acta 841:278, 1983), this implies a higher reactivity of 4-mercaptohistidines toward 02^.-. Differences between the reactions with acetaldehyde and xanthine will implicate OH^. in the process.

[7] = Reduction of Fremy's salt nitroxide radical; settings: pH 7.0
Source text: Fremy's salt (K^+- 03 SN(0^.)SO3^- K^+) is a stable, commercially available nitroxide radical. Reduction of this radical can be followed by UV or ESR. […] In this assay, a relatively large difference was seen between two aromatic thiols, H3 and thiophenol.

[8] = test system: sea urchin eggs; experiment: Toxicity to sea urchin eggs (inhibition of first cellular division after fertilization); type: cell-based; settings: administered as the disulfide
Source text: This aspect of the screening program introduces additional complications. For example, certain thiols are toxic to cells (Heinecke, J. W., et al., J. Biol. Chem. 262, 1987; Issels, R., et al., in Superoxide and Superoxide Dismutase in Chemistry, Biology, and Medicine, ed. G. Rotilio, pp. 419-421, Elsevier, N.Y., 1986) because they can autooxidize and produce reactive oxygen intermediates (Misra, H. R., J. Biol. Chem. 249:2151-2155,1974). Thiol toxicity may be due to redox cycling; for example, when cystine is given to cells it damages lipoproteins, apparently by being reduced to cysteine intracellularly then exiting to reoxidize and produce oxygen radicals and cellular damage. When we administered compound H3 (containing the reactive 4-mercaptoimidazole ring without the amino acid side chain) to sea urchin eggs, it was toxic at 2 mM but not at 200 μM (as assessed inhibition of the first cellular division after fertilization). […] We tried compound H3 because we thought it would be permeant, having no charged side chain; we administered it to these cells as the disulfide. We infer that the toxicity was caused by redox cycling, with H3 being taken up, reduced, and the thiol being reoxidized extracellularly to produce reactive oxygen intermediates. […]

[9] = test system: cultured myoblasts; experiment: Toxicity to cultured myoblasts (colony formation, 3H-TdR incorporation); type: cell-based; settings: administered as the disulfide
[10] = Reduction of ovothiol disulfide (OSSO) by reduced glutathione; type: physicochemical
Description: The redox potential of ovothiol was determined, as were the kinetics for its interaction with glutathione and H2 02. The mid-point potential (E^o') was estimated indirectly by determining the equilibrium in reaction with other known thiol-disulfide equilibria, since direct determination of (E^o') for thiols is typically complicated by artifacts. […] Appropriate corrections were made for the mixed disulfides present at different concentrations of ovothiol and glutathione. E^o' (30^o) for ovothiol was 44 mV positive relative to glutathione, or -0.196 V. Thus, the ΔG^o' for the reduction of ovothiol disulfide (OSSO) by reduced glutathione (GSH) is […], so that at equilibrium reduced ovothiol (OSH) predominates in a mixture of equimolar oxidized ovothiol (OSSO) and reduced glutathione (GSH). From a thermodynamic point of view, ovothiol can be maintained almost entirely in the reduced state by GSH, and thus by NADPH via glutathione reductase, without the need for a specific ovothiol reductase. […] Because reduced glutathione reduces ovothiol, a functional ovothiol reductase reaction exists by coupling reactions and [6]. The second order rate constant for ovothiol reduction by glutathione is 88M^-1 S^-1. We calculate that egg glutathione reductase is sufficient to produce 4.1 pmol GSH/min; with an egg GSH content of 0.9 pmol, it would take only 13 seconds for the egg to regenerate its entire GSH content from GSSG, if NADPH were present (which it is after fertilization). […] In other words, reduction of ovothiol is rapid at the concentrations of glutathione and ovothiol of the egg, and an enzymatic "ovothiol reductase" is not required to catalyze reaction.

[11] = test system: eggs; experiment: Oxygen consumption by eggs; type: cell-based, sea urchin
Source text: First, both ovothiol and NAD(P)H are intracellular metabolites, whereas ovoperoxidase is extracellular during the respiratory burst. […] Second, H2 02 is not released stoichiometrically by the ovoperoxidase-oxidase, so this cannot account for the significant concentrations of H2 02 previously detected at fertilization. Third, aminotriazole inhibits both the NAD(P)H oxidase and peroxidase activities of ovoperoxidase, yet has no effect on oxygen consumption by eggs.

[12] = test system: fertilized sea urchin eggs; type: in vitro ADME
Description: First, the conditions under which ovothiols A or C are transported into the cells of interest are determined using radioactive ovothiol derivatives. For example, by reacting ovothiol A with ^3 H-formaldehyde and reduction by NaBH4, ovothiol A was converted into ^3 H-ovothiol C. […] The km for OSH uptake appears to be higher than for histidines, although the Vmax may be similar. We measure the kinetics of ovothiol uptake into the cells to be studied, in order to identify optimal conditions for transport. We no only use ^3 H-ovothiol C but also synthesize ^3 H-ovothiol A by using ^14 C--HCHO in the abovedescribed chemical synthesis procedure.

[13] = test system: sea urchin eggs; experiment: First cell division of sea urchin eggs after iodoacetamide treatment; type: cell-based; settings: for cell division: 0.25 mM iodoacetamide
Source text: The following biological experiment further implicates ovothiol in protection of eggs from H2 02 produced during the respiratory burst. If ovothiol were important in protection, then its absence should lead to embryonic lethality. […] However, iodoacetamide might have reacted with critical proteins (or other components) required for cell division, so that experiment was not definitive in implicating ovothiol. More recently, we added exogeneous catalase to eggs derivatized with iodoacetamide. Catalase should act as a second mechanism for removing H2 02 and partially compensate for the iodoacetamide treatment. The first cell division was blocked for eggs treated with 1.0 mM iodoacetamide prior to the respiratory burst (7% cleavage vs. 90% of control eggs). With catalase present during the respiratory burst, 70% of IAA-treated eggs divided (and 90% of the controls). Pretreatment with 0.25 mM iodoacetamide decreased cleavage to 75%; with exogenous 0.1 mM H2 02 added, cell division occurred in only 2% of these eggs, and with catalase present in 90%. Control eggs (not treated with iodoacetamide) were unaffected by 0.1 mM H2 02.

[14] = Mid-point redox potential from equilibrium with glutathione thiol-disulfide; type: physicochemical; settings: 30°
Description: The redox potential of ovothiol was determined, as were the kinetics for its interaction with glutathione and H2 02. The mid-point potential (E^o') was estimated indirectly by determining the equilibrium in reaction with other known thiol-disulfide equilibria, since direct determination of (E^o') for thiols is typically complicated by artifacts. […] Appropriate corrections were made for the mixed disulfides present at different concentrations of ovothiol and glutathione. E^o' (30^o) for ovothiol was 44 mV positive relative to glutathione, or -0.196 V. Thus, the ΔG^o' for the reduction of ovothiol disulfide (OSSO) by reduced glutathione (GSH) is -0.386 kcal, so that at equilibrium reduced ovothiol (OSH) predominates in a mixture of equimolar oxidized ovothiol (OSSO) and reduced glutathione (GSH). From a thermodynamic point of view, ovothiol can be maintained almost entirely in the reduced state by GSH, and thus by NADPH via glutathione reductase, without the need for a specific ovothiol reductase. […] Because reduced glutathione reduces ovothiol, a functional ovothiol reductase reaction exists by coupling reactions and [6]. The second order rate constant for ovothiol reduction by glutathione is 88M^-1 S^-1. […]

ovoperoxidase, sequence (O44391 entry or part of it): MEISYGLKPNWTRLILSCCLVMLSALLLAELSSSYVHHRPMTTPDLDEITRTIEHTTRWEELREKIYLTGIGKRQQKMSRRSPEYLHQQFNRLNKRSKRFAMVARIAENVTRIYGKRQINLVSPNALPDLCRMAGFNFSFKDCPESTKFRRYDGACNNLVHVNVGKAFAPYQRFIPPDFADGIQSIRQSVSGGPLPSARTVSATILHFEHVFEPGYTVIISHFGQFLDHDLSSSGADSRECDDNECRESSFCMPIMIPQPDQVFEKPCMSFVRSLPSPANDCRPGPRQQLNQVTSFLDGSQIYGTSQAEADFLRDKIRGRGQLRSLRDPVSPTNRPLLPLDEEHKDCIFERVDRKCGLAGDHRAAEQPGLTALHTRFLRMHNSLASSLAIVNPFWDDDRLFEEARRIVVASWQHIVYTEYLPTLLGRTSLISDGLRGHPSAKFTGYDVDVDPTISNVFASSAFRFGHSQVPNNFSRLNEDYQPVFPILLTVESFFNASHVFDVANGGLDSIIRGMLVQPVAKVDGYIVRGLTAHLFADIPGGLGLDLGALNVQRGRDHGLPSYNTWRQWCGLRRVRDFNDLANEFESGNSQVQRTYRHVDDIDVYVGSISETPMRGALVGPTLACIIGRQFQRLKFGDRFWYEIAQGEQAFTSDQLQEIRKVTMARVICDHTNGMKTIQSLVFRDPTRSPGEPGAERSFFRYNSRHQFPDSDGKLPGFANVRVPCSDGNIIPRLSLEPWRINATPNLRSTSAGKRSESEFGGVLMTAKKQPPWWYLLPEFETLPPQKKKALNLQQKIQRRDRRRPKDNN

CC(C)(COP(=O)(O)OP(=O)(O)OC[C@H]1O[C@@H](n2cnc3c(N)ncnc32)[C@H](O)[C@@H]1OP(=O)(O)O)[C@@H](O)C(=O)NCCC(=O)NCCS [Coenzyme A]
cofactor for the CN--resistant oxidase reaction [1]: could not be replaced by

N[C@@H](CCC(=O)N[C@@H](CS)C(=O)NCC(=O)O)C(=O)O [GSH, glutathione]
cofactor for the CN--resistant oxidase reaction [1]: could not be replaced by | second order rate constant for reaction with H2O2 [2]: 1.5 M^-1 S^-1 | concentration needed for effect, relative to H3 [3]: 50 fold | effect on air oxidation of pyrogallol [3]: more modest inhibitory effect | inhibition of photochemical dityrosine formation [4]: at least an order of magnitude less effective | protection by SOD in this assay [5]: 20%

Cc1c(S)ncn1C [H3, 1,5-dimethyl-4-mercaptoimidazole]
oxidation by the xanthine/xanthine oxidase system [6]: is oxidized | suppression of oxidation by addition of SOD ([6]; xanthine/xanthine oxidase): up to 50% | effect on air oxidation of pyrogallol [3]: induces a time lag | inhibition of photochemical dityrosine formation [4]: strong inhibitor | effect on dityrosine formation at 1 μM ([4]; 1 μM): slowing the reaction for several minutes | rate of reduction of Fremy's salt relative to glutathione [7]: ~40 fold | rate of reduction of Fremy's salt relative to thiophenol [7]: roughly ten-fold faster | rate of reduction of Fremy's salt, rank [7]: fastest radical scavenger | toxicity to sea urchin eggs at 200 μM ([8]; 200 μM): not | toxicity to sea urchin eggs at 2 mM ([8]; 2 mM): toxic | colony formation of cultured myoblasts ([9]; 200 μM): inhibited colony formation | IC50 ([9]; Myoblast, cultured myoblasts, read-out: half-maximal effect on 3H-TdR incorporation): 15 µM

CN(C)[C@@H](Cc1c(SSc2ncn(C)c2C[C@@H](C(=O)O)N(C)C)ncn1C)C(=O)O [OSSO]
ΔG°' for reduction of ovothiol disulfide (OSSO) by reduced glutathione (GSH) [10]: -0.386 kcal | t1/2 for reduction of OSSO to OSH ([10]; normal cellular GSH levels): 1.6 s

Nc1nc[nH]n1 [aminotriazole]
effect on oxygen consumption by eggs [11]: no effect

N[C@@H](CS)C(=O)O [cysteine]
cofactor for the CN--resistant oxidase reaction [1]: could not be replaced by

C[N+](C)(C)[C@@H](Cc1c[nH]c(=S)[nH]1)C(=O)[O-] [ergothioneine]
cofactor for the CN--resistant oxidase reaction [1]: could not be replaced by

N[C@@H](Cc1c[nH]cn1)C(=O)O [histidine]
uptake by fertilized sea urchin eggs [12]: 38 fmol/egg/hr

NC(=O)CI [iodoacetamide]
cell division ([13]; 0.1 mM H2O2, catalase present): 90% | cell division ([13]; exogenous 0.1 mM H2O2 added): 2% | cleavage (first cell division) ([13]; 1.0 mM iodoacetamide prior to respiratory burst): 7% | eggs divided ([13]; 1.0 mM iodoacetamide, catalase present during respiratory burst): 70% | cleavage ([13]; pretreatment with 0.25 mM iodoacetamide): 75%

CN(C)[C@@H](Cc1c(S)ncn1C)C(=O)O [ovothiol C, 1-methyl-N^α N^α -dimethyl-4-thiolhistidine]
ovothiol concentration giving maximal oxidase activity [1]: 1 mM | E°' mid-point potential [14]: -0.196 V | E°' relative to glutathione (positive) [14]: 44 mV | second order rate constant for ovothiol reduction by glutathione [10]: 88 M^-1 S^-1 | rate with H2O2 relative to reduced glutathione [2]: ~2.3 fold | second order rate constant for reaction with H2O2 [2]: 3.34 M^-1 S^-1 | second order rate constant for reaction with H2O2 ([2]; listed as OSH): 3.3 M^-1 S^-1 | km for uptake compared with histidines [12]: higher | uptake by fertilized sea urchin eggs [12]: 6 fmol/egg/hr

Sc1ccccc1 [thiophenol]
effect on air oxidation of pyrogallol [3]: similar, though not identical

catalase
inhibition of the NAD(P)H oxidase activity of ovoperoxidase [1]: inhibited

superoxide dismutase
inhibition of the NAD(P)H oxidase activity of ovoperoxidase [1]: inhibited
